# Results published in PMC12586182 (Frontiers in Oncology, 2025).
# Tests used:
# Test in all cases: Cell viability assay (ATPlite)
# Type in all cases: cell-based
# A-673 = conditions: Homo sapiens, A673; A-673 cell line, 72 hours incubation
# In short: (§1)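 Cells grew 24 h, then received 9-point √10-fold compound series in duplicate (0.4% DMSO final) for 72 h. ATP content was read by ATPlite luminescence and normalized to vehicle controls as % viability. IC50 came from a four-parameter logistic fit; curves with F-value above 1.5 were invalidated, with IC50 then set at the top concentration.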
# BT-20 = conditions: Homo sapiens; BT-20 cell line, 72 hours incubation
# In short: as §1
# C-33 A = conditions: Homo sapiens; C-33 A cell line, 72 hours incubation
# In short: as §1
# CCF-STTG1 = conditions: Homo sapiens; CCF-STTG1 cell line, 72 hours incubation
# In short: as §1
# DLD-1 = conditions: Homo sapiens; DLD-1 cell line, 72 hours incubation
# In short: as §1
# DU4475 = conditions: Homo sapiens, DU-4475; DU4475 cell line, 72 hours incubation
# In short: as §1
# ES-2 = conditions: Homo sapiens; ES-2 cell line, 72 hours incubation
# In short: as §1
# EoL-1 = conditions: Homo sapiens, EOL1; EoL-1 cell line, 72 hours incubation
# In short: as §1
# FaDu = conditions: Homo sapiens; FaDu cell line, 72 hours incubation
# In short: as §1
# HCC1954 = conditions: Homo sapiens; HCC1954 cell line, 72 hours incubation
# In short: as §1
# HEC-251 = conditions: Homo sapiens; HEC-251 cell line, 72 hours incubation
# In short: as §1
# HL-60 = conditions: Homo sapiens; HL-60 cell line, 72 hours incubation
# In short: as §1
# Hs 852.T = conditions: Homo sapiens; Hs 852.T cell line, 72 hours incubation
# In short: as §1
# MKN45 = conditions: Homo sapiens, MKN-45; MKN45 cell line, 72 hours incubation
# In short: as §1
# NCI-H1650 = conditions: Homo sapiens; NCI-H1650 cell line, 72 hours incubation
# In short: as §1
# NCI-H1975 = conditions: Homo sapiens; NCI-H1975 cell line, 72 hours incubation
# In short: as §1
# NCI-H2172 = conditions: Homo sapiens; NCI-H2172 cell line, 72 hours incubation
# In short: as §1
# NCI-H2452 = conditions: Homo sapiens; NCI-H2452 cell line, 72 hours incubation
# In short: as §1
# NCI-H716 = conditions: Homo sapiens; NCI-H716 cell line, 72 hours incubation
# In short: as §1
# PA-1 = conditions: Homo sapiens; PA-1 cell line, 72 hours incubation
# In short: as §1
# RD = conditions: Homo sapiens; RD cell line, 72 hours incubation
# In short: as §1
# RPMI-7951 = conditions: Homo sapiens; RPMI-7951 cell line, 72 hours incubation
# In short: as §1
# RS4;11 = conditions: Homo sapiens; RS4;11 cell line, 72 hours incubation
# In short: as §1
# SK-N-AS = conditions: Homo sapiens; SK-N-AS cell line, 72 hours incubation
# In short: as §1
# SU-DHL-1 = conditions: Homo sapiens; SU-DHL-1 cell line, 72 hours incubation
# In short: as §1
# SW480 = conditions: Homo sapiens; SW480 cell line, 72 hours incubation
# In short: as §1
# SW780 = conditions: Homo sapiens; SW780 cell line, 72 hours incubation
# In short: as §1
# T24 = conditions: Homo sapiens, T-24; T24 cell line, 72 hours incubation
# In short: as §1
# TOV-21G = conditions: Homo sapiens, TOV21G; TOV-21G cell line, 72 hours incubation
# In short: as §1
# U2OS = conditions: Homo sapiens; U2OS cell line, 72 hours incubation
# In short: as §1
# UWB1.289 = conditions: Homo sapiens, UWB1289; UWB1.289 cell line, 72 hours incubation
# In short: as §1
structure (smiles),measurement,setting,value
O=C(c1ccc(Oc2ccccc2)cc1Cl)c1c[nH]c2ncnc(N[C@@H]3CC[C@@H](CO)OC3)c12 [nemtabrutinib],IC50,A-673,3600 nM
same,IC50,BT-20,14500 nM
same,IC50,C-33 A,1320 nM
same,IC50,CCF-STTG1,16700 nM
same,IC50,DLD-1,4600 nM
same,IC50,DU4475,1130 nM
same,IC50,ES-2,929 nM
same,IC50,EoL-1,59 nM
same,IC50,FaDu,1300 nM
same,IC50,HCC1954,1320 nM
same,IC50,HEC-251,178 nM
same,IC50,HL-60,2180 nM
same,IC50,Hs 852.T,4020 nM
same,IC50,MKN45,5260 nM
same,IC50,NCI-H1650,9800 nM
same,IC50,NCI-H1975,2320 nM
same,IC50,NCI-H2172,447 nM
same,IC50,NCI-H2452,5460 nM
same,IC50,NCI-H716,1460 nM
same,IC50,PA-1,3030 nM
same,IC50,RD,3440 nM
same,IC50,RPMI-7951,2220 nM
same,IC50,RS4;11,7800 nM
same,IC50,SK-N-AS,2810 nM
same,IC50,SU-DHL-1,6220 nM
same,IC50,SW480,3340 nM
same,IC50,SW780,2790 nM
same,IC50,T24,2790 nM
same,IC50,TOV-21G,3780 nM
same,IC50,U2OS,2660 nM
same,IC50,UWB1.289,2490 nM
